Experimental data taken from patent US20050245465A1, “Compounds for treating Alzheimer's disease and for inhibiting beta-amyloid peptitde production” (priority 2004, published 2005).
Entries after “also recorded” stand apart in the source; their conditions may differ. Where two headings read alike, the source gives them in different places.

Assays:
CHO-APP/PS1 cells = assay: Secreted Aβ40/Aβ42 ELISA in CHO-APP/PS1 cells; format: cell-based, Chinese hamster; conditions: for Aβ42 levels: CHO cells co-expressing human APP with wild-type PS1 or FAD mutant PS1 (delta E9, L286V)
Experimental: (§1) FIG. 10 depicts the effects of native ginsenosides on Aβ42 production. CHO cells stably transfected with human APP695 together with either wild-type (A, CHO-APP/PS1 cells) or ΔE9 FAD mutant (B, CHO-APP/ΔE9PS1 cells) forms of PS1 were used. Cells were treated with the indicated compounds (at 50 μM) for 8 hrs. Levels of secreted Aβ40 and Aβ42 in the medium were determined by ELISA and normalized to intracellular full-length APP. In CHO-APP/PS1 cells, average Aβ amounts in control samples were 320 pM for Aβ40 and 79 pM for Aβ42. The relative levels of Aβ and Aβ42 were normalized to values obtained from non-treated and vehicle-treated cells and are shown as % to control+s.d.). One of three representative experiments are shown.
(§2) CHO-APP/PS1 (A) and CHO-APP/ΔE9PS1 (B) cells were treated with the indicated compounds at 50 μM for 8 hrs and the levels of secreted Aβ40 and Aβ42 were determined as described in FIG. 1. […] The PS1-ΔE9 FAD mutation diminished the Aβ42 response to Rk1 treatment (B).

CHO-APP/ΔE9PS1 cells = assay: Secreted Aβ40/Aβ42 ELISA in CHO-APP/ΔE9PS1 cells; format: cell-based, Chinese hamster; conditions: 50 μM, 8 hrs
Experimental: as §1, §2
Steaming ginseng at high temperature gave rise to additional ginsenosides with enhanced pharmacological activity, including (20S)Rg3, Rk1 and Rg5 (22-25). Next, the effects of these heat-processing derived ginsenosides (e.g., (20S)Rg3, Rh1, Rh2, Rk1, Rg6, Rg5) on Aβ40 and Aβ42 generation were tested. […] In contrast, Aβ42 levels were not affected by (20R)Rg3, Rh1, and Rg6. Aβ40 levels were not changed by treatment with any of the ginsenosides tested. The potency of Aβ42-lowering activity was highest with Rk1 and (20S)Rg3. […] The secretion of Aβ40 was affected by treatment with Rk1 only at very high concentration (˜100 μM) and cell viability was not affected by treatment of Rk1 under these conditions (up to 100 μM, 8 hour treatment; data not shown). […] Overnight treatment with Rgk351, Rk1, and Rg5 also reduce Aβ42 production in CHO-APP cells (FIG. 12B). […]

[1] = system: CHO cells expressing human APP; assay: Secreted Aβ40/Aβ42 ELISA in medium of CHO-APP cells; format: cell-based, Chinese hamster; design: key to Aβ42-lowering activity: Aβ42-lowering activity (“Yes”); no profound effects (“No”); non-determined (“ND”); Ginsenosides that affected cell viability are indicated as “Cytotoxic.”; conditions: for Aβ42 in the medium, dose-dependence: CHO cells expressing human APP; for generation of Aβ42 (Aβ42 levels in the medium, ELISA, normalized to intracellular full-length APP): CHO cells stably transfected with human APP695, 50 μg/ml, 8 hrs; for Aβ42 vs. Aβ40 in the medium (preference): normalized to non-treated and vehicle-treated cells; for Aβ42-lowering activity: Tables 1-3; for secretion of Aβ42 (initial screening): heat-processing derived ginsenosides; for production of Aβ42 in cells (summary statement): mammalian cells, in vitro
Experimental: The CHO cells were treated with the indicated compounds (at 50 μg/ml) for 8 hrs. Aβ42 levels in the medium were measured by ELISA and normalized to intracellular full-length APP.
The potential effects of ginsenosides and their analogues in treating AD were examined. First, a number of ginsenosides were screened based on their effects on Aβ generation. The effects of various ginsenosides on Aβ (e.g., Aβ40 and Aβ42) production was initially accessed by incubating the Chinese hamster ovary (CHO) cells expressing human APP(CHO-APP cells) with each ginsenoside purified from unprocessed ginseng (known as “white ginseng”). These representative ginsenosides included Rb1, Rb2, Rc, Rd, Re, Re, Rg1 and Rg2 and differ in their side chains and sugar moieties.
After 8 hours of incubation, the media were collected and the levels of secreted Aβ40 and Aβ42 were determined by ELISA.
Steaming ginseng at high temperature gave rise to additional ginsenosides with enhanced pharmacological activity, including (20S)Rg3, Rk1 and Rg5 (22-25). Next, the effects of these heat-processing derived ginsenosides (e.g., (20S)Rg3, Rh1, Rh2, Rk1, Rg6, Rg5) on Aβ40 and Aβ42 generation were tested. […] In contrast, Aβ42 levels were not affected by (20R)Rg3, Rh1, and Rg6. Aβ40 levels were not changed by treatment with any of the ginsenosides tested. The potency of Aβ42-lowering activity was highest with Rk1 and (20S)Rg3. […] The secretion of Aβ40 was affected by treatment with Rk1 only at very high concentration (˜100 μM) and cell viability was not affected by treatment of Rk1 under these conditions (up to 100 μM, 8 hour treatment; data not shown). […] Overnight treatment with Rgk351, Rk1, and Rg5 also reduce Aβ42 production in CHO-APP cells (FIG. 12B). […] These studies provide a structure-activity relationship between the chemical structures of ginsenosides and Aβ42-lowering activity, further providing the basis for designing additional Aβ42-lowering analogues as well as for defining a class of compounds that harbor Aβ42-lowering activity.

APP = assay: Western blot of APP processing in CHO-APP and Neuro2a-APPsw cells; format: cell-based, Chinese hamster and mouse; conditions: cell lysates; for APP C-terminal fragments (γ-secretase substrates): CHO-APP and Neuro2a APPsw cells
Excerpt: FIG. 13. depicts an analysis of APP processing after Rk1 treatment. Steady-state levels of full-length APP and APP C-terminal fragments (APP-CTFs) were examined by Western blot analysis using anti-R1 antibody. […] Correlated Aβ42 levels for each sample are shown in the bottom panel.

[2] = system: primary embryonic cortical neurons derived from Tg2576 transgenic mice; assay: Aβ40 and Aβ42 secretion in primary embryonic cortical neurons; format: cell-based
Excerpt: Treatment of Rk1 and Rg3 decreased the level of secreted Aβ40 and Aβ42.

γ-secretase [3] = assay: Cell-free generation of intracellular domains (AICD, NICD, p75-ICD) in membrane fractions of 293 cells; format: biochemical; conditions: membrane fractions from 293 cells overexpressing APP, Notch-ΔE or p75-ΔE
Experimental: Membrane fractions isolated from 293 cells overexpressing either APP (A), Notch-ΔE (B) or p75-ΔE (C) and incubated in the presence of indicated compounds: Compound E (CpdE, general γ-secretase inhibitor), Rgk351, Rk1 and sulindac sulfide (SS).
Since the effect of Rk1 was rather selective to Aβ42 (but not Aβ40) in a cell-based assay, the question of whether Rk1 affects other γ-secretase-mediated cleavage events, including the generation of AICD resulted from a transmembrane cleavage of APP distal from either Aβ40 or Aβ42 site, and γ-secretase-mediated intramembrane cleavage of Notch1 or p75 neurotrophin receptor (p75NTR) to yield Notch1 or p75NTR intracellular domains (NICD or p75-ICD, respectively) was tested. The cell-free generation of AICD, NICD and p75-ICD was not affected by incubation with Rgk351 or Rk1 (FIG. 5).

CHO-APP cells = assay: Mass spectrometric analysis of Aβ species from CHO-APP cells; format: cell-based, Chinese hamster; conditions: mass spectrometry, vs DMSO
Experimental: Note that treatment leads to a decrease in Aβ42 species (1-42), and elevation in both Aβ37 (1-37) and Aβ38 (1-38). Mass spectrometric analysis of Aβ species were performed as previously described (Wang R, Sweeny D, Gandy S E, Sisodia S S. The profile of soluble amyloid β-protein in cultured cell media. J. Bio. Chem. 1996; 271: 31894-31902).

γ-secretase [4] = assay: Cell-free γ-secretase assay (CHAPSO-solubilized membrane fractions, Aβ ELISA); format: biochemical; conditions: for Aβ40 and Aβ42 generation in cell-free γ-secretase assay: dose-response
Experimental: (A) CHAPSO-solubilized membrane fractions were incubated with recombinant γ-secretase substrates together with the indicated compounds (at 100 μM) and the levels of Aβ42 and Aβ40 were determined by ELISA as described (27-29). (B) Dose-response of Aβ40 and Aβ42-lowering activity of Rk1 and (20S)Rg3 in a cell-free γ-secretase assay.
Next, the inhibitory effects of Rk1 and (20S)Rg3 on Aβ generation in an in vitro γ-secretase assay was studied. […] In contrast, naproxen, an NSAID without Aβ42-lowering activity, had no effects on Aβ42 production (FIG. 15A).

CHO cells = assay: Cell viability of treated CHO cells; format: cell-based, Chinese hamster
Experimental: as §2
Tables 1-3 Structure of ginsenosides utilized in the study and their effects on Aβ42 generation. They differ at the two or three side chains attached to the common triterpene backbone known as dammarane. The common structure skeleton for each group of ginsenosides is shown in the top panel. Ginsenosides that harbor Aβ42-lowering activity are indicated in the far right column of the tables: Aβ42-lowering activity (“Yes”), no profound effects (“No”), and non-determined (“ND”). Ginsenosides that affected cell viability are indicated as “Cytotoxic.” Abbreviation for carbohydrates are as follows: Glc, D-glucopyranosyl; Ara (pyr), L-arabinopyranosyl; Ara (fur), L-arabinofuranyosyl; Rha, L-rhamnopyranosyl.
Steaming ginseng at high temperature gave rise to additional ginsenosides with enhanced pharmacological activity, including (20S)Rg3, Rk1 and Rg5 (22-25). Next, the effects of these heat-processing derived ginsenosides (e.g., (20S)Rg3, Rh1, Rh2, Rk1, Rg6, Rg5) on Aβ40 and Aβ42 generation were tested. […] In contrast, Aβ42 levels were not affected by (20R)Rg3, Rh1, and Rg6. […]

[5] = overnight treatment, CHO-APP cells
[6] = cell-free γ-secretase assay, read-out: IC50 for Aβ40
[7] = cell-free γ-secretase assay, read-out: IC50 for Aβ42

IC50 (γ-secretase [4]; [6]) [µM]	IC50 (γ-secretase [4]; [7]) [µM]	SMILES	potency of Aβ42-reducing activity (order) (CHO-APP/PS1 cells; 50 μM, 8 hrs)	Aβ42 levels (CHO-APP/PS1 cells)	Aβ42-lowering response in PS1 ΔE9 FAD mutant cells vs PS1 wild-type cells (CHO-APP/ΔE9PS1 cells)	potency of Aβ42-lowering activity (comparison among ginsenosides) [1]	Aβ42 in the medium, dose-dependence [1]	generation of Aβ42 (Aβ42 levels in the medium, ELISA, normalized to intracellular full-length APP) [1]	Aβ42 vs. Aβ40 in the medium (preference) ([1]; CHO-APP cells)	Aβ42-lowering activity [1]	secretion of Aβ42 (initial screening) [1]	production of Aβ42 in cells (summary statement) [1]	Aβ42 production [1, 5]	full-length APP levels (APP)	APP C-terminal fragments (γ-secretase substrates) (APP)	level of secreted Aβ40 and Aβ42 [2]	Aβ37 (1-37) and Aβ38 (1-38) (CHO-APP cells)	Aβ42 species (1-42) (CHO-APP cells)	Aβ40 and Aβ42 generation in cell-free γ-secretase assay (γ-secretase [4])	other results
–	–	CC(C)=CC/C=C(\C)[C@H]1CC[C@]2(C)[C@@H]1[C@H](O)C[C@@H]1[C@@]3(C)CC[C@H](O[C@@H]4O[C@H](CO)[C@@H](O)[C@H](O)[C@H]4O[C@@H]4O[C@H](CO)[C@@H](O)[C@H](O)[C@H]4O)C(C)(C)[C@@H]3CC[C@]12C [Rg5]	Rk1>/=(20S)Rg3>Rg5>(20R)Rg3	much smaller as compared to Rgk351 and Rk1	diminished	much smaller as compared to Rgk351 and Rk1; also recorded: less effective	reduced; also recorded: lower Aβ42 in a dose-dependent manner	reduce	preferentially reduced Aβ42 (vs. Aβ40)	Yes	selectively lowered	lower	reduce	not affected	increased accumulation	–	–	–	–	–
27 ± 3	32 ± 5	C=C(CCC=C(C)C)[C@H]1CC[C@]2(C)[C@@H]1[C@H](O)C[C@@H]1[C@@]3(C)CC[C@H](O[C@@H]4O[C@H](CO)[C@@H](O)[C@H](O)[C@H]4O[C@@H]4O[C@H](CO)[C@@H](O)[C@H](O)[C@H]4O)C(C)(C)[C@@H]3CC[C@]12C [Rk1]	Rk1>/=(20S)Rg3>Rg5>(20R)Rg3	reduced	diminished	most effective; also recorded: highest	reduced; also recorded: lower Aβ42 in a dose-dependent manner	reduce	preferentially reduced Aβ42 (vs. Aβ40); also recorded: preferentially lowers Aβ42 (vs. Aβ40)	Yes	selectively lowered	lower	reduce	not affected; also recorded: did not affect	increased accumulation; also recorded: up-regulated	decreased	elevation	decrease	inhibits; also recorded: inhibited both Aβ40 and Aβ42 with a similar potency	cell-free generation of AICD, NICD and p75-ICD (γ-secretase [3]): does not significantly affect; also recorded: not affected; Aβ42 generation in vitro (γ-secretase [4]; cell-free γ-secretase assay, partially purified γ-secretase complex, 100 μM): inhibit; also recorded: potently inhibited; concentration at which secretion of Aβ40 was affected ([1]; 8 hour treatment): ~100 µM; IC50 ([1]; CHO-APP cells, read-out: IC50 of Aβ42 lowering activity): ~20 µM; Aβ40 production [1, 5]: slightly affected; cell viability (CHO cells; up to 100 μM, 8 hour treatment): not affected
27 ± 4	26 ± 7	CC(C)=CCC[C@](C)(O)[C@H]1CC[C@]2(C)[C@@H]1[C@H](O)C[C@@H]1[C@@]3(C)CC[C@H](O[C@@H]4O[C@H](CO)[C@@H](O)[C@H](O)[C@H]4O[C@@H]4O[C@H](CO)[C@@H](O)[C@H](O)[C@H]4O)C(C)(C)[C@@H]3CC[C@]12C [(20S)Rg3]	Rk1>/=(20S)Rg3>Rg5>(20R)Rg3	–	diminished	highest	–	–	–	Yes	selectively lowered	lower	–	–	–	decreased	elevation	decrease	inhibits; also recorded: inhibited both Aβ40 and Aβ42 with a similar potency	–
–	–	CC(C)=CCC[C@](C)(O)[C@H]1CC[C@]2(C)[C@@H]1[C@H](O)C[C@@H]1[C@@]3(C)CC[C@H](O[C@@H]4O[C@H](CO)[C@@H](O)[C@H](O)[C@H]4O)C(C)(C)[C@@H]3CC[C@]12C [Rh2]	–	–	–	–	–	–	–	–	–	–	–	–	–	–	–	–	–	Aβ42-lowering effects (CHO-APP/PS1 cells; 50 μM, 8 hrs): exhibited Aβ42-lowering effects; cell viability (CHO cells; 50 μM treatment): partially affected
